What was measured:
Assay type in all cases: cell-based
[1] = tested on: human adipose-derived mesenchymal stem cells; experiment: Cell viability / cytotoxicity by Cell Counting Kit-8 (CCK-8); settings: 0-280 μM nervonic acid, vs DMSO control
Description: The isolated human adipose-derived mesenchymal stem cells were treated with nervonic acid at different concentrations and cultured for 72 hours, after which cytotoxicity was measured. Specifically, Cell Counting Kit-8 (CCK-8, Dojindo, Tokyo, Japan) was used, and 1×10^3/well of cells were plated on a 96-well plate, stabilized for 24 hours, and then treated with nervonic acid at different concentrations (0, 40, 80, 120, 160, 200, 240, 280 μM), including the control group (DMSO), and cell viability was measured.
Before confirming the efficacy of nervonic acid to promote adipogenesis, cell viability was reconfirmed by treating cells with nervonic acid at various concentrations for 7 days. The specific method is the same as the method described above, and cell viability was measured by treatment with nervonic acid at different concentrations (0, 40, 80, 120, 160, 200, 240, 280 μM), including the control group (DMSO).

[2] = tested on: human adipose-derived mesenchymal stem cells; experiment: Observation of oil droplet formation after 72 hours of culture with nervonic acid; settings: 72 hours treatment, different concentrations
Description: Human adipose-derived mesenchymal stem cells were treated with nervonic acid at different concentrations for 72 hours and cultured, after which the concentration at which oil droplets were generated was observed.

[3] = tested on: human adipose-derived mesenchymal stem cells (AD-MSCs); experiment: Adipogenesis induction, Oil Red O staining and quantification (absorbance at 540 nm); settings: for Oil Red O stained oil droplets, fold increase compared to DMSO-treated control group: 160 μM, three lots of AD-MSCs
Description: To determine the appropriate concentration of nervonic acid having excellent efficacy in promoting adipogenesis, adipogenesis was induced for 7 days by treating human adipose-derived mesenchymal stem cells with nervonic acid at different concentrations (0, 40, 80, 120, 160, 200, 240, 280 μM), followed by Oil Red O staining to confirm the stained oil droplets.
(§1) Specifically, for Oil Red O (Sigma-Aldrich, St. Louis, MO, USA) staining, after completion of differentiation, the culture medium was removed from each well of the plate, followed by washing twice with 1×PBS and then fixing with 4% paraformaldehyde (PFA) for 10 minutes. Washing three times with deionized water and then washing once with 60% isopropyl alcohol were performed. The Oil Red O stock solution was diluted with deionized water in a ratio of 3:2 to prepare an Oil Red O working solution, 1 ml of which was then added to each well of the plate followed by reaction at room temperature for 30 minutes. After washing once with 60% isopropyl alcohol and washing three times with deionized water, the red-stained oil droplets were observed and photographed under a microscope, and the results are shown in FIG. 4a.
After inducing adipogenesis for 7 days by treating human adipose-derived mesenchymal stem cells with nervonic acid at different concentrations (0, 40, 80, 120, 160, 200, 240, 280 μM), the results of quantification of the oil droplets stained by Oil Red O staining are shown in FIG. 4b.
Specifically, the stained oil droplets were dissolved in 100% isopropyl alcohol, and 100 μl of the result was transferred to each well of the 96-well plate, followed by measurement using a microplate reader (absorbance at 540 nm). […] Nervonic acid (Sigma-Aldrich, St. Louis, MO, USA) was dissolved in DMSO and then stored at −80° C. before use.
Adipogenesis was induced for 7 days by treating a total of three lots of human adipose-derived mesenchymal stem cells (AD-MSCs) with 160 μM nervonic acid, followed by observation of the oil droplets stained by Oil Red O staining, and the results are shown in FIG. 5a.

[4] = tested on: human umbilical cord blood-derived mesenchymal stem cells (UCB-MSCs); experiment: Adipogenesis induction, Oil Red O staining quantification
Description: as §1
(§2) Specifically, the stained oil droplets were dissolved in 100% isopropyl alcohol, and 100 μl of the result was transferred to each well of the 96-well plate, followed by measurement using a microplate reader (absorbance at 540 nm). […]
After inducing adipogenesis for 7, 14, and 21 days by treating human umbilical cord blood-derived mesenchymal stem cells (UCB-MSCs) with nervonic acid, the oil droplets stained by Oil Red O staining are shown in FIG. 8a, and the results of quantification of the stained oil droplets are shown in FIG. 8b.

[5] = tested on: human placenta-derived mesenchymal stem cells (PL-MSCs); experiment: as above
Description: as §1, §2
After inducing adipogenesis for 7, 14, and 21 days by treating human placenta-derived mesenchymal stem cells (PL-MSCs) with nervonic acid, the oil droplets stained by Oil Red O staining are shown in FIG. 9a, and the results of quantification of the stained oil droplets are shown in FIG. 9b.

[6] = tested on: human umbilical cord-derived mesenchymal stem cells (WJ-MSCs); experiment: as above
Description: as §1, §2
After inducing adipogenesis for 7, 14, and 21 days by treating human umbilical cord-derived mesenchymal stem cells (WJ-MSCs) with nervonic acid, the oil droplets stained by Oil Red O staining are shown in FIG. 10a, and the results of quantification of the stained oil droplets are shown in FIG. 10b.

[7] = tested on: human bone marrow-derived mesenchymal stem cells (BM-MSCs); experiment: as above; settings: 160 μM, days 7 and 14
Description: as §1, §2
After inducing adipogenesis for 7, 14, and 21 days by treating human bone marrow-derived mesenchymal stem cells (BM-MSC) with nervonic acid, the oil droplets stained by Oil Red O staining are shown in FIG. 11a, and the results of quantification of the stained oil droplets are shown in FIG. 11b.

[8] = tested on: human adipose-derived mesenchymal stem cells (AD-MSCs); experiment: qRT-PCR of adipogenesis markers at the mRNA level (2^-ΔΔCt); settings: 160 μM, day 14, qRT-PCR
Description: After inducing adipogenesis for 14 days by treating human adipose-derived mesenchymal stem cells (AD-MSCs) with 160 μM nervonic acid, the gene expression of adipogenesis markers at the mRNA level was compared using qRT-PCR.
Specifically, RNA for qRT-PCR was extracted from mesenchymal stem cells with adipogenesis completed using TRIZOL from Invitrogen according to the method provided by the vendor, and cDNA was synthesized using SuperScript™ IV Reverse Transcriptase from Invitrogen. qRT-PCR was performed using the primers listed in Table 1 below, and the quantified results through 2^−ΔΔCt analysis are shown in FIG. 12.

[9] = tested on: human adipose-derived mesenchymal stem cells (AD-MSCs); experiment: Western blotting of adipogenesis markers at the protein level; settings: 160 μM, day 14, Western blotting
Description: After inducing adipogenesis for 14 days by treating human adipose-derived mesenchymal stem cells (AD-MSCs) with 160 μM nervonic acid, the expression of adipogenesis markers at the protein level was compared using Western blotting.
Specifically, protein for Western blotting was extracted from mesenchymal stem cells with adipogenesis completed using RIPA lysis buffer, and Western blotting was performed using the primary antibodies listed in Table 2 below.

[10] = tested on: human adipose-derived mesenchymal stem cells (AD-MSCs); experiment: Western blotting of adipogenesis-associated signaling molecules (phosphorylation ratios); settings: 160 μM, day 14, Western blotting
Description: After inducing adipogenesis for 14 days by treating human adipose-derived mesenchymal stem cells (AD-MSCs) with 160 μM nervonic acid, the expression of adipogenesis-associated signaling molecules at the protein level was compared using Western blotting.
More specifically, protein for Western blotting was extracted using the same method as the extraction method described above, and Western blotting was performed using the primary antibodies listed in Table 3 below.

[11] = 160 μM, 7, 14 and 21 days (all cases)

**Q.** How did the “cell viability (cytotoxicity)” value ([1]; 72 hours (3 days)) turn out when `CCCCCCCC/C=C\CCCCCCCCCCCCCC(=O)O` [nervonic acid] was run?
**A.** Its value is “no significant difference in cell viability”.

**Q.** What about the “cell viability (cytotoxicity)” value ([1]; 7 days) of the same compound?
**A.** The value was “no significant difference in cell viability”.

**Q.** And the “concentration at which oil droplets were observed” value [2]?
**A.** Its value is at least 160 µM.

**Q.** And the “Oil Red O stained oil droplets, fold increase compared to DMSO-treated control group” value ([3]; 7 days)?
**A.** Its value is 2.13±0.27 fold.

**Q.** What about the “Oil Red O stained oil droplets, fold increase compared to DMSO-treated control group” value ([3]; 14 days) of the same compound?
**A.** The value was 1.70±0.08 fold.

**Q.** And the “Oil Red O stained oil droplets, fold increase compared to DMSO-treated control group” value ([3]; 21 days)?
**A.** Its value is 1.27±0.14 fold.

**Q.** What about the “concentration at which adipogenesis was most effectively induced (Oil Red O quantification)” value ([3]; 7 days adipogenesis, 0-280 μM tested) of the same compound?
**A.** Its value is 160 µM.

**Q.** What about the “Oil Red O stained oil droplets, fold increase compared to DMSO control group” value [4, 11] of the same compound?
**A.** The value was at least 2 fold.

**Q.** And the “Oil Red O stained oil droplets, fold increase compared to DMSO control group” value ([4]; 160 μM, day 21 (greatest))?
**A.** Its value is 3.87±0.06 fold.

**Q.** What about the “Oil Red O stained oil droplets, fold increase compared to DMSO control group” value [5, 11] of the same compound?
**A.** The value was at least 2 fold.

**Q.** What about the “Oil Red O stained oil droplets, fold increase compared to DMSO control group” value ([5]; 160 μM, day 21 (greatest)) of the same compound?
**A.** The value was 9.22±0.15 fold.

**Q.** And the “Oil Red O stained oil droplets, fold increase compared to DMSO control group” value [6, 11]?
**A.** The value was at least 2 fold.

**Q.** What about the “Oil Red O stained oil droplets, fold increase compared to DMSO control group” value ([6]; 160 μM, day 21 (greatest)) of the same compound?
**A.** The value was 5.61±0.23 fold.

**Q.** What about the “adipogenesis (Oil Red O) compared to DMSO control group” value [7] of the same compound?
**A.** Its value is “slightly increased”.

**Q.** What about the “Adiponectin mRNA expression, fold increase compared to control group” value [8] of the same compound?
**A.** The value was 1.37±0.19 fold.

**Q.** What about the “LPL mRNA expression, fold increase compared to control group” value [8] of the same compound?
**A.** Its value is 1.44±0.12 fold.

**Q.** What about the “PPARγ mRNA expression, fold increase compared to control group” value [8] of the same compound?
**A.** Its value is 1.74±0.35 fold.

**Q.** What about the “c/EBPa mRNA expression, fold increase compared to control group” value [8] of the same compound?
**A.** The value was 1.66±0.22 fold.

**Q.** What about the “Adiponectin protein expression, fold increase compared to control group” value [9] of the same compound?
**A.** The value was 2.35±0.55 fold.

**Q.** And the “C/EBPA protein expression, fold increase compared to control group” value [9]?
**A.** The value was 1.37±0.08 fold.

**Q.** What about the “LPL protein expression, fold increase compared to control group” value [9] of the same compound?
**A.** Its value is 1.53±0.15 fold.

**Q.** What about the “PPARγ protein expression, fold increase compared to control group” value [9] of the same compound?
**A.** Its value is 2.34±0.69 fold.

**Q.** And the “AKT phosphorylation ratio (activation indicator), fold increase compared to control group” value [10]?
**A.** Its value is 1.36±0.16 fold.

**Q.** And the “B-catenin phosphorylation ratio (inactivation indicator), fold increase compared to control group” value [10]?
**A.** The value was 1.39±0.06 fold.

**Q.** And the “mTOR phosphorylation ratio (activation indicator), fold increase compared to control group” value [10]?
**A.** Its value is 1.34±0.14 fold.

— patent US20260226414A1, “COMPOSITION FOR INDUCING DIFFERENTIATION OF MESENCHYMAL STEM CELLS INTO ADIPOCYTES” (ENCELL CO., LTD, priority 2023, published 2026)
